Test [1] relates to Staphylococcus aureus. The test can be described thus: Antibacterial activity against methicillin-resistant Staphylococcus aureus USA 300 NRS 384 by two fold serial dilution method. It is filed as functional.
Test [2] is described as follows: Antibacterial activity against Clostridium difficile VIP 10463 ATCC 43255 by two fold serial dilution method. The class given is functional, Clostridium difficile ATCC 43255. Conditions: Clostridioides difficile.
For test [3], the system named is Streptococcus pneumoniae. Put plainly: Antibacterial activity against Streptococcus pneumoniae 262 ATCC 49619 by two fold serial dilution method. It is filed as functional.
The test system of test [4] is Neisseria gonorrhoeae. Put plainly: Antibacterial activity against Neisseria gonorrhoeae F-18 ATCC 49226 by two fold serial dilution method. It is filed as functional.
Test [5] has as its system Burkholderia pseudomallei. Put plainly: Antibacterial activity against Burkholderia pseudomallei AHS 1 NCTC 8016 by two fold serial dilution method. The class given is functional.
In test [6] the test system is Mycobacterium tuberculosis. The test can be described thus: Antibacterial activity against Mycobacterium tuberculosis H37Ra ATCC 2517 by two fold serial dilution method. It is filed as functional.
Test [7] deals with Klebsiella aerogenes. Put plainly: Antibacterial activity against carbapenem-resistant Enterobacter aerogenes NCDC819-56 ATCC 13048 by two fold serial dilution method. It is filed as functional.
The subject of test [8] is Acinetobacter baumannii. Put plainly: Antibacterial activity against Acinetobacter baumannii B5W71 ATCC 15149 by two fold serial dilution method. It is filed as functional.
A short description of test [9]: Antibacterial activity against Salmonella enterica LT2 Typhimurium ATCC 15277 by two fold serial dilution method. It is filed as functional.
The subject of test [10] is Pseudomonas aeruginosa. Put plainly: Antibacterial activity against Pseudomonas aeruginosa Boston 41501 ATCC 27853 by two fold serial dilution method. It is filed as functional.
Test [11] can be described thus: Antibacterial activity against carbapenem-resistant Klebsiella pneumoniae K6 ATCC 700603 by two fold serial dilution method. The class given is functional, Klebsiella pneumoniae 700603.
Test [12] deals with Enterococcus faecalis. Put plainly: Antibacterial activity against Enterococcus faecalis Portland ATCC 29212 by two fold serial dilution method. It is filed as functional. Conditions: ATCC 29212 Portland.
The subject of test [13] is Staphylococcus aureus. Put plainly: Antibacterial activity against Staphylococcus aureus Seattle 1945 ATCC 25923 by two fold serial dilution method. It is filed as functional.
The nature of test [14]: Antibacterial activity against Bacillus anthracis Ames NR-3838 by two fold serial dilution method. It is filed as functional, Bacillus anthracis str. Ames.
Test [15] in a line: Antibacterial activity against Francisella tularensis SCHU S4 NR-643 by two fold serial dilution method. It is filed as functional.
The nature of test [16]: Antibacterial activity against Yersinia pestis CO92 NR641 by two fold serial dilution method. The class given is functional.

In brackets after ≈: the same amount, converted by molar mass. Non-standard residues stand in square brackets, D forms with d. Residues, ends and D or L forms follow the SMILES beside them. ξ: configuration not given here. Ac6c = NC1(C(=O)O)CCCCC1; ξDap = NCC(N)C(=O)O

In general, MIC refers to the lowest concentration found to suppress growth. A low value points to greater potency.

Regarding `CN[C@@H](CC(C)C)C(=O)N[C@H]1C(=O)N[C@@H](CC(N)=O)C(=O)N[C@H]2C(=O)N[C@H]3C(=O)N[C@H](C(=O)N[C@@H](C(=O)O)c4cc(O)cc(O)c4-c4cc3ccc4O)[C@H](O)c3ccc(c(Cl)c3)Oc3cc2cc(c3O[C@H]2O[C@@H](CO)[C@H](O)[C@@H](O)[C@@H]2O[C@@H]2C[C@@](C)(N)[C@@H](O)[C@@H](C)O2)Oc2ccc(cc2Cl)[C@H]1O`, the figures for the MIC in [1], in [2] and in test [3] were 2.7 µM (≈ 3.91 µg/mL), 0.17 µM (≈ 0.246 µg/mL) and 1.99 µM (≈ 2.88 µg/mL), respectively.

In the case of `CN(C)[C@@H]1C(O)=C(C(N)=O)C(=O)[C@@]2(O)C(O)=C3C(=O)c4c(O)cccc4[C@@](C)(O)[C@H]3C[C@@H]12` [TETRACYCLINE], the MIC was found to be 2.25 µM (≈ 1 µg/mL) in test [4] and 4.5 µM (≈ 2 µg/mL) in [5].

In turn, `CN[C@@H]1[C@H](O[C@H]2[C@H](O[C@H]3[C@H](O)[C@@H](O)[C@H](N=C(N)N)[C@@H](O)[C@@H]3N=C(N)N)O[C@@H](C)[C@]2(O)C=O)O[C@@H](CO)[C@H](O)[C@H]1O` [STREPTOMYCIN] yielded an MIC in test [6] of 3.4 µM (≈ 1.98 µg/mL).

For `CC(=O)NCC(=O)N[C@@H](Cc1ccccc1)C(=O)NC1(C(=O)NCC(=O)NC2(C(=O)NC(CN)C(=O)NC3(C(=O)NCC(=O)NC4(C(=O)N[C@@H](Cc5ccccc5)C(=O)NC5(C(=O)NCC(=O)NC6(C(=O)NCC(=O)NC(CN)C(=O)NC7(C(=O)NC(CN)C(=O)NC(CN)C(=O)NC(CN)C(=O)NC(CN)C(N)=O)CCCCC7)CCCCC6)CCCCC5)CCCCC4)CCCCC3)CCCCC2)CCCCC1` (some centres not stated) (Ac-GF[Ac6c]G[Ac6c][ξDap][Ac6c]G[Ac6c]F[Ac6c]G[Ac6c]G[ξDap][Ac6c][ξDap][ξDap][ξDap][ξDap]-NH2), the MIC in [7] was 1.54 µM (≈ 3.13 µg/mL); in [8], greater than 48 µM; in [9], 24.6 µM (≈ 50 µg/mL); in test [10], 3.08 µM (≈ 6.26 µg/mL); in test [11], 3.08 µM (≈ 6.26 µg/mL); in [12], 3.08 µM (≈ 6.26 µg/mL). Moreover, the MIC turned out to be 6.16 µM (≈ 12.5 µg/mL) in test [1]; 3.08 µM (≈ 6.26 µg/mL) in test [2]; 6.16 µM (≈ 12.5 µg/mL) in [13]; 24.6 µM (≈ 50 µg/mL) in test [3]; 6.16 µM (≈ 12.5 µg/mL) in test [4]; 6.16 µM (≈ 12.5 µg/mL) in test [14]. For the same compound, the MIC in test [15] was 49.2 µM (≈ 99.9 µg/mL); in [16], greater than 49 µM; in test [5] it was greater than 49 µM; in test [6] it was 24.6 µM (≈ 50 µg/mL).
